Reference: PubChem BioAssay AID179 (DTP/NCI, 2004)
Activity calls are given as the source filed them.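 The calls were made as follows: active = compounds giving half or more protection of infected cells from virus-caused growth loss, again on retest; inactive = the rest.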

Tested on: CEM cells HIV-1 protection, formazan growth assay
Experiment: NCI AIDS Antiviral Assay
Conditions: for IC50: measured here: growth of uninfected CEM cells
How it was run: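 CEM (human) cells, HIV-1 infected vs uninfected, 5-point dosing, formazan growth read-out. Retest threshold 50% protection.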

SMILES | EC50 | IC50 | outcome
CC(=O)N/N=C1\NN(C(C)=O)C2(S1)C(=O)Nc1ccccc12 (centres undefined) | > 200 µM | > 200 µM | –
Oc1ccc(S)cc1CNC1CCCCC1 | > 200 µM | 13.2 µM | –
CCc1c(C#N)c(=O)[nH]c(=O)n1CCN1CCN(C(=O)NCCCCCCNC(=O)N2CCN(CCn3c(CC)c(C#N)c(=O)[nH]c3=O)CC2)CC1 | – | – | inactive
CC1(C(=O)Nc2ccc3ccccc3c2)CC2(C)CC(C)(C1)C(O)NC2=O (centres undefined) | – | – | inactive
Nc1c(O)c(C(=O)O)cc2ccccc12 | > 200 µM | 17.8 µM | –
Cc1nc(N)nc(N)c1CCCCc1ccccc1 | – | – | inactive
OCC(O)COc1ccc(F)cc1 (centres undefined) | > 1350 µM | > 1350 µM | –
CCOC(=O)NC(NNc1ccc([N+](=O)[O-])cc1[N+](=O)[O-])(C(F)(F)F)C(F)(F)F | > 200 µM | 43.7 µM | –
CCSC(SCC)C(O)C(O)C(O)C(O)C(O)C(O)CO (centres undefined) | – | – | inactive
CCC(/C(=N/NC(=O)C[N+](C)(C)C)c1ccccc1)C1OC(=O)c2ccccc21 (centres undefined) | > 575 µM | > 575 µM | –
O=C1c2ccccc2C(=O)c2c1c(-c1ccccc1)cc(CCO)c2-c1ccccc1 | – | – | inactive
O=[N+]([O-])c1cc(C(F)(F)F)cc2n[se]nc12 | – | – | inactive
Cc1[nH]nc2c1NC(=O)OC(C)(C)C2 | > 479 µM | > 479 µM | –
CCCCC(=O)N1SC(NC(=O)OC)=Nc2ccccc21 | > 309 µM | 6.76 µM | –
O=c1[nH]c(=O)n(C2CC(O)C(CO)O2)cc1NN=NCCCc1ccccc1 (centres undefined) | > 200 µM | > 200 µM | –
COc1ccc(C(CC(=O)C(C)(C)CN2CCCCC2)SCCS(=O)(=O)O)cc1 (centres undefined) | > 200 µM | 13.2 µM | –
CN(C)c1ccc(/C=C(\NC(=O)c2ccccc2)C(=O)Nc2ccccc2C(=O)O)cc1 | > 100 µM | > 100 µM | –
NC(N)=NS(=O)(=O)c1ccc(NNc2c3ccccc3nc3ccccc23)cc1 | > 200 µM | 1.07 µM | –
Cc1nc2n[nH]c(N)c2nc1C | > 83.2 µM | > 83.2 µM | –
CSC(SC)=C1C(=O)N(c2ccccc2)N=C1C | > 200 µM | 37.2 µM | –
COc1ccc2c(c1)CCC1C=NOC21 (centres undefined) | > 245 µM | 107 µM | –
[Ni].c1c[nH]cn1.c1c[nH]cn1.c1c[nH]cn1.c1c[nH]cn1.c1c[nH]cn1.c1c[nH]cn1 | > 66.1 µM | > 66.1 µM | –
COc1ccc(C(=O)/C=C/c2ccc(OCC(=N)N)cc2)cc1 | > 200 µM | 9.77 µM | –

SMILES | EC50 | IC50 | outcome
N#CC(C#N)=C(N)/C(C#N)=C/c1ccc(O)c(O)c1 | > 200 µM | 61.7 µM | –
Oc1c(CN2CCOCC2)cc(N=Nc2ccccc2)c(O)c1CN1CCOCC1 | > 100 µM | > 100 µM | –
O=CC[C@H]1CCc2ccccc2C12CCC(=O)CC2 | > 74.1 µM | > 74.1 µM | –
CCN1CCCc2cc3c(C(F)(F)F)cc(=O)oc3cc21 | > 17.4 µM | > 17.4 µM | –
O=C(c1ccc(Cl)cc1)c1c(O)c2ccccc2oc1=O | > 200 µM | > 200 µM | –
Cc1cc(NS(=O)(=O)c2ccc(NC(NC(=O)OC(C)C)(C(F)(F)F)C(F)(F)F)cc2)nc(C)n1 | > 200 µM | > 200 µM | –
Cc1c(C#N)c(N)n(C2OC(CO)C(O)C(O)C2O)c(=S)c1C#N (centres undefined) | > 200 µM | > 200 µM | –
O=C1NN=C2CCCCCCC12Cl (centres undefined) | > 1050 µM | 158 µM | –
CCN1CCNc2c3cc(OC)ccc3nc3c([N+](=O)[O-])ccc1c23 | > 200 µM | 0.11 µM | –
c1ccc2c(c1)[nH]c1cnc3c4ncccc4[nH]c3c12 | – | – | inactive
CN(Cc1cnc2nc(N)nc(N)c2n1)c1ccc(C(=O)NC(CCC(=O)NC(CC(P(=O)(O)O)P(=O)(O)O)C(=O)O)C(=O)O)cc1 (centres undefined) | > 100 µM | 0.219 µM | –
O=NN(CCCl)C(=O)NC1CCC(=O)NC1=O (centres undefined) | > 955 µM | 182 µM | –
Cc1occc1C(=S)Nc1ccc(Cl)c(C(=O)OC(C(C)C)C(C)C)c1 | 0.0912 µM | 13.2 µM | –
COc1cccc(CC2C(=O)N=C(NC(C)=O)N2C)c1OC(C)=O (centres undefined) | > 200 µM | 151 µM | –
C=C1C=CC2(Br)OC3CC(C)(Cl)C(Br)CC13C2(C)C (centres undefined) | – | – | inactive
CCCCOC(=O)/C=C(\Br)C(=O)OCCCC | – | – | inactive
CC(C)(C)C(=O)N(C(=S)OCc1ccccn1)c1ccccc1 | > 200 µM | 40.7 µM | –
C[PH+](C)CC[PH+](C)C.[C-]#[O+].[C-]#[O+].[C-]#[O+].[Fe] | > 200 µM | > 200 µM | –
CN(C)C(=S)/N=C(\N)N(C)C | – | – | inactive
COC(=O)Nc1cn2ccc(C(Cl)=C(Cl)Cl)cc2n1 | > 30.9 µM | 0.0331 µM | –
O=C1[C@H]2ON(c3ccccc3)C(c3ccccc3)[C@H]2C(=O)N1c1ccc(Cc2ccc(N3C(=O)[C@@H]4ON(c5ccccc5)C(c5ccccc5)[C@@H]4C3=O)cc2)cc1 (some centres undefined) | > 13.2 µM | > 13.2 µM | –
OC1CCC[C@@H]1Sc1ccccc1 (some centres undefined) | – | – | inactive
COc1cc2ccc3c(c2cc1OC)CCc1cnoc1-3 | > 47.9 µM | > 47.9 µM | –

SMILES | EC50 | IC50 | outcome
CCN(CC)CCNCC(O)CN1CCN(C)CC1 (centres undefined) | > 200 µM | 155 µM | –
COc1cccc(/C=N\N=C\c2cccc(OC)c2O)c1O | > 200 µM | 66.1 µM | –
CNC(C)(C)C(SSSC(c1ccc(Cl)cc1)C(C)(C)NC)c1ccc(Cl)cc1 (centres undefined) | > 200 µM | 3.55 µM | –
COc1ccccc1-c1cc(B(O)O)ccc1OC | > 200 µM | 40.7 µM | –
COc1cc2ccc3c4c(OC)cc(OC)c(OC)c4c(=O)n(C)c3c2cc1OC | > 45.7 µM | 3.63 µM | –
CSc1nc(N)c2c(n1)N(C)C=NS2(=O)=O | > 28.2 µM | > 28.2 µM | –
Cc1cccc(C(O)c2cccnc2)c1O (centres undefined) | > 200 µM | > 200 µM | –
FC(F)(F)C1(C(F)(F)F)OC(Cl)(Cl)C(Cl)(Cl)O1 | > 200 µM | > 200 µM | –
CCOc1ccccc1-c1nc2c(s1)C(=O)c1ccccc1C2=O | > 200 µM | 32.4 µM | –
COc1ccc(Nc2nc3ccccc3nc2C(=O)O)cc1OC | > 200 µM | 85.1 µM | –
CC1(C)C2CCC(CN)(C2)C1O (centres undefined) | > 200 µM | > 200 µM | –
O=S1(=O)Cc2ccc3c4c2-c2c(ccc5ccc(c-4c25)CS(=O)(=O)C3)C1 | > 200 µM | 17 µM | –
CN(C)c1ccc2nc(CC(O)(C(F)(F)F)C(F)(F)F)ccc2c1 | > 200 µM | > 200 µM | –
Cn1nc(-c2ccccc2)c(N=[N+]=[N-])cc1=O | > 200 µM | > 200 µM | –
CCOC(=O)C(=O)C1CCCCC1=O (centres undefined) | > 200 µM | 43.7 µM | –
c1ccc(C2=NOC3(c4ccccc4)CC(c4cccs4)Sc4ccccc4N23)cc1 (centres undefined) | > 200 µM | 70.8 µM | –
CC12CCCC1C1CC=C3CC(SC4CCC5(C)C(=CCC6C7CCCC7(C)CCC65)C4)CCC3(C)C1CC2 (centres undefined) | > 200 µM | > 200 µM | –
CCN(CC)CCC(=O)N1C/C(=C/c2ccccc2)C(=O)/C(=C\c2ccccc2)C1 | > 200 µM | 0.407 µM | –
O=C(Nc1ccccc1)c1cc2cc(N=Nc3ccc(Br)cc3)ccc2oc1=O | – | – | inactive
COC(=O)C1c2c(C)cc3n2C(C=CC3)C1C(=O)OC (centres undefined) | > 324 µM | 115 µM | –
O=C1N=NC(Cl)c2ccccc21 (centres undefined) | > 28.8 µM | > 28.8 µM | –
CCN(CCCc1ccccc1)CCCc1ccccc1 | > 200 µM | 105 µM | –
